Legend:
[1] = target: truncated enzyme (PfDHODH); design: method as in PMID 16510978; settings: assayed under similar conditions; cited from earlier work
human enzyme (DHODH) = target: human enzyme (DHODH); design: method as in PMID 16510978; settings: cited from earlier work
s-RrDHODH = target: s-RrDHODH; design: method as in PMID 16510978; settings: read-out: Ki, s-RrDHODH from rat; cited from earlier work
[2] = target: full-length enzyme from P. falciparum (PfDHODH); design: method as in PMID 7909690; settings: after solubilization in Triton X-100; cited from earlier work
s-PfDHODH = target: T1, s-PfDHODH (Plasmodium falciparum, UniProt Q08210); experiment: Inhibition of s-PfDHODH in vitro (Tres Cantos laboratory); settings: read-out: s-PfDHODH in vitro IC50; assayed at the Tres Cantos laboratory
T1 sequence (Q08210 158-569 limits assumed): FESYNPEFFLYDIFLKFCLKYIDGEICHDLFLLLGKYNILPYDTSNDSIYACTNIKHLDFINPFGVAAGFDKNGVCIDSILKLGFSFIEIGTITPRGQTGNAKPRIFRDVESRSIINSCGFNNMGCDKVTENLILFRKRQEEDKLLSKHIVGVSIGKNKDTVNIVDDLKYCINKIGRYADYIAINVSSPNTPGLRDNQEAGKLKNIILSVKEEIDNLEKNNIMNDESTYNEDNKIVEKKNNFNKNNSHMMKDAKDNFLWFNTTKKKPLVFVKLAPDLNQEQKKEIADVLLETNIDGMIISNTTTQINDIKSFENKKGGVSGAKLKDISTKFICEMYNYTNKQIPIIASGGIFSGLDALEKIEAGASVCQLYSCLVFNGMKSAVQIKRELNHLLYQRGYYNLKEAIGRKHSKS
Description: The literature data set used to build our PfDHODH inhibition models was based on in vitro assays carried out using the truncated, soluble form of the enzyme introduced by Baldwin et al. [10].

intact PfDHODH = experiment: Rescue from growth inhibition by transfection with ScDHODH (Dd2attB_yeastDHODH vs parental Dd2attB); assay type: cell-based, Plasmodium falciparum; settings: P. falciparum in blood culture; Tres Cantos, previously unpublished
Excerpt: Fortunately, there is a way to address this question, though the method is somewhat indirect. P. falciparum parasites engineered to express DHODH from the yeast Saccharamyces cerevisiae (ScDHODH) use fumarate as an oxidizing agent instead of ubiquinone, so their growth is not inhibited by (i.e., they are “rescued from”) inhibitors that compete with ubiquinone. Painter et al. used this technique to validate PfDHODH as an antimalarial drug target.
Unbeknownst to the Simulations Plus and U.C. Riverside groups, the Tres Cantos group had already tested several 2-aminoquinolone actives from the GSK antimalarial data set for rescue by ScDHODH transfection. […] An additional sixteen 2-amino-4-quinolones having different bridging groups were also assayed; three of these were clearly subject to rescue, whereas three yielded ambiguous results.
The Dd2 cell line containing yeast dihydroorotate dehydrogenase (DHODH) and its parental strain were cultured as described in 4.3.1 and potency of compounds determined following procedures outlined in 4.3.2. The ScURA1 gene from Saccharomyces cerevisiae was amplified from genomic DNA and cloned into the pLN-14 vector. The P. falciparum Dd2attB strain was transfected by electroporation, and stable transfectants were selected with blasticidin. Both the Dd2attB_yeastDHODH strain and its parental strain, Dd2attB, were used in these assays to determine if parasite growth inhibition was mediated by inhibition of PfDHODH following rationale previously described in Painter et al..

[3] = system: P. falciparum 3D7 (chloroquine-susceptible); experiment: XC50 in asynchronous blood culture, [3H]hypoxanthine incorporation, strain 3D7; assay type: cell-based; settings: Plasmodium falciparum, concentration required to reduce parasite growth rate by 50%
Description: (§1) Antimalarial activity in blood culture was determined as previously described at the University of California, Riverside, under conditions essentially identical to those used by GSK [19].
(§2) P. falciparum 3D7A and Dd2 strains used in this study were obtained from the Malaria Research and Reference Reagent Resource Center (MR4). Parasites were grown in human erythrocytes (obtained from a transfusion blood bank in Madrid, Spain) with Albumax II medium as previously described. RPMI 1640 medium (Gibco) was supplemented with 0.5% Albumax II (Invitrogen), 2% D-sucrose (Sigma-Aldrich), 0.3% glutamine (Sigma-Aldrich), and 150 µM hypoxanthine (Sigma-Aldrich). Cultures were maintained at 37°C at an atmosphere of 5% O2, 5% CO2, and 90% N2.
(§3) Parasite growth inhibition assays and 50% inhibitory concentration (XC50) determinations were carried out by following standard methods using the [^3H]hypoxanthine incorporation assay. Briefly, cultures with 0.5% parasitemia and 2% hematocrit were incubated with the drug as described for 48 h. After this period, parasites were harvested and the amount of incorporated radiolabeled precursor was determined. Radioactivity was added 24 h before harvesting of the parasites.

[4] = system: P. falciparum Dd2 (chloroquine-resistant); experiment: XC50 in asynchronous blood culture, [3H]hypoxanthine incorporation, strain Dd2; assay type: cell-based, Plasmodium falciparum; settings: for IC50: Plasmodium falciparum, DD2, concentration required to reduce parasite growth rate by 50%, chloroquine-resistant strain, asynchronous blood culture; for Resistance ratio (±): ratio of XC50 between resistant (Dd2) and susceptible (3d7) strains
Description: as §1, §2, §3

SMILES	rescue of parasites from growth inhibition by ScDHODH transfection (intact PfDHODH)	IC50 [3] [µM]	IC50 [4] [µM]	Resistance ratio (±) [4]	further results
O=C1C(O)=C([C@H]2CC[C@H](c3ccc(Cl)cc3)CC2)C(=O)c2ccccc21 [Atovaquone]	–	–	–	–	Ki [1]: > 500 µM; Ki (human enzyme (DHODH)): ~2 µM; Ki (s-RrDHODH): ~0.08 µM; Ki [2]: 27 µM
O=C(O)C(O)C(=O)O [CID 44,537,350]	–	–	–	–	IC50 (s-PfDHODH): 0.86 µM
O=c1cc(NCC2(CNCc3cn(Cc4ccccc4)c4ccccc34)CCCCC2)[nH]c2ccccc12 [CID 10300864]	rescued	–	–	–	–
CCOc1c(CNCCCNc2cc(=O)c3ccccc3[nH]2)cc(Br)cc1OC [CID 44373601]	not rescued	–	–	–	–
O=c1cc(NC[C@H]2CCC[C@@H]2NC2CCCc3c2[nH]c2ccccc32)[nH]c2ccccc12 (stereo partly drawn) [CID 44533954]	not rescued	–	–	–	–
O=c1cc(NCCCNCc2sc(Br)nc2Br)[nH]c2ccccc12 [CID 44534653]	rescued	–	–	–	–
COc1ccc2[nH]c(NCC3(CNC4CCNc5ccccc54)CCCC3)cc(=O)c2c1 (stereo not drawn) [Compound 11c, 6-methoxy-2-(1-((1,2,3,4-tetrahydroquinolin-4-yl)aminomethyl)cyclopentyl)methylamino-1H-quinolin-4-one]	–	0.37	1.78	4.8	–
Cn1cc(CNCC2(CNc3cc(=O)c4ccccc4[nH]3)CCCC2)n(C)c1=O [Compound 12a, 2-(1-((1,3-dimethyl-2-oxo-imidazol-4-yl)methylaminomethyl)cyclopentyl)methylamino-1H-quinolin-4-one]	–	10	46	4.6	–
Cn1cc(CNCC2(CNc3cc(=O)c4cc(Cl)ccc4[nH]3)CCCC2)n(C)c1=O [Compound 12b, 6-chloro-2-(1-((1,3-dimethyl-2-oxo-imidazol-4-yl)methylaminomethyl)cyclopentyl)methylamino-1H-quinolin-4-one]	–	1.61	6.4	3.9	–

Reference: paper PMC7533260, “Design and tests of prospective property predictions for novel antimalarial 2-aminopropylaminoquinolones” (Journal of Computer-Aided Molecular Design, 2020)
